US20250049036A1 (priority 2021, published 2025)

Experiments:
Botrytis cinerea [1] = assay: Botrytis cinerea test on tomato, preventive, greenhouse; type: in vivo; details: preventive spray on bean/chili plants (heading: tomato), inoculated one day after treatment, read-out: control (efficacy, disease severity) compared to the untreated check
Botrytis cinerea [2] = assay: Botrytis cinerea liq. (BOTRCI) spore growth inhibition in liquid medium, 96-well microtiter plate, OD 405 nm; type: cell-based; details: spore suspension in YBA liquid medium, 22° C., 5-6 days, OD at 405 nm, read-out: control compared to the untreated check
Description: Yeast bacterial peptone and sodium acetate (YBA) liquid medium containing a BOTRCI (10^4 spores/ml) spore suspension was prepared. For the inhibition assay, each test compound was solved in dimethyl sulfoxide. 100 μl of the test compound in media-solution was added to a 96-well microtiter plate, consequently, the same volume (100 μl) of spore suspension was added to the well making the final test concentrations and the plate was incubated at 22° C. for 5-6 days. The growth inhibition was evaluated by measuring the OD at 405 nm. Percent inhibition was calculated with the below formula:
Where T=treatment, C=control, and B=blank

Botrytis cinerea [3] = assay: Botrytis cinerea (gray mold) mycelial radial growth on potato dextrose agar; type: cell-based; details: 168 h, 22° C., seven days, read-out: control compared to the untreated check
Description: (§1) The compounds were dissolved in 0.3% dimethyl sulfoxide and then added to potato dextrose agar medium just prior to dispensing it into petri dishes. 5 mL medium, with the compound in the desired concentration, was dispensed into 60 mm sterile petri-plates. After solidification, each plate was seeded with a 5 mm size mycelial disc taken from the periphery of an actively growing virulent culture plate. The plates were incubated in growth chambers at 22° C. temperature and 90% relative humidity for seven days and the radial growth was measured and compared to the one of the untreated control.

Parastagonospora nodorum = Parastagonospora nodorum (PARANO) spore growth inhibition in liquid medium, 96-well microtiter plate, OD 600; type: cell-based; details: spore suspension in PDB liquid medium, 18° C., 5-6 days, OD at 600, read-out: control compared to the untreated check
Outline: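 Read-out is percent growth inhibition from OD at 600 after 5-6 days at 18° C. Compounds, dissolved in DMSO, were diluted in potato dextrose broth and combined in equal volume with a 10^5 spores/ml suspension of PARANO.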

Phakopsora pachyrhizi = Phakopsora pachyrhizi test on soybean, preventive, greenhouse; type: in vivo; details: preventive spray on soybean, inoculated one day after treatment, read-out: control (efficacy, disease severity) compared to the untreated check
Outline: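 Greenhouse-grown young soybean plants were sprayed with compound (2% DMSO/acetone, emulsifier in water) at the stated rate. One day later they were inoculated with 2×10^5 P. pachyrhizi inoculum and held at 22-24 °C, 80-90% relative humidity for disease development.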

Phytophthora infestans = assay: microbe, parasite or virus in culture; type: cell-based; details: 168 h, read-out: control compared to the untreated check
Pyricularia oryzae = assay: microbe, parasite or virus in culture; type: cell-based; details: 168 h, read-out: control compared to the untreated check
Colletotrichum capsici = Colletotrichum capsici (anthracnose) mycelial radial growth on potato dextrose agar; type: cell-based; details: Colletotrichum truncatum, 168 h, 25° C., seven days, read-out: control compared to the untreated check
Description: as §1, with “25°” for “22°”, “60%” for “90%”

CC(C)CC(C)(Cc1ccccc1)NC(=O)c1cnc2c(c1)c(C1CC1)cn2C (centres unmarked) [Compound 55, 3-cyclopropyl-N-(2,4-dimethyl-1-phenylpentan-2-yl)-1-methyl-1H-pyrrolo[2,3-b]pyridine-5-carboxamide]
≥ 70%: pest or weed control at 500 ppm (Botrytis cinerea [1]) | inhibition of growth at 300 ppm (Botrytis cinerea [2]) | inhibition of growth at 300 ppm (Botrytis cinerea [3])

COc1ccccc1CC(C)(C)NC(=O)c1cnc2c(c1)c(F)cn2C [Compound 72, 3-fluoro-N-(1-(2-methoxyphenyl)-2-methylpropan-2-yl)-1-methyl-1H-pyrrolo[2,3-b]pyridine-5-carboxamide]
≥ 70%: inhibition of growth at 300 ppm (Botrytis cinerea [2]) | inhibition of growth at 300 ppm (Botrytis cinerea [3])

Cn1ccc2cc(C(=O)NC3(C)Cc4ccccc4C3)cnc21 [Compound 78, 1-methyl-N-(2-methyl-2,3-dihydro-1H-inden-2-yl)-1H-pyrrolo[2,3-b] pyridine-5-carboxamide]
≥ 70%: inhibition of growth at 300 ppm (Parastagonospora nodorum) | inhibition of growth at 300 ppm (Botrytis cinerea [2]) | inhibition of growth at 300 ppm (Botrytis cinerea [3])

CN1CCOc2cc(C(=O)NC(C)(C)Cc3ccccc3)cnc21 [Compound 82, 4-methyl-N-(2-methyl-1-phenylpropan-2-yl)-3,4-dihydro-2H-pyrido[3,2-b] [1,4]oxazine-7-carboxamide]
≥ 70%: inhibition of growth at 300 ppm (Parastagonospora nodorum) | inhibition of growth at 300 ppm (Botrytis cinerea [2]) | inhibition of growth at 300 ppm (Botrytis cinerea [3])

Cn1ccc2ncc(C(=O)NC(C)(C)Cc3ccccc3)cc21 [Compound 86, 1-methyl-N-(2-methyl-1-phenylpropan-2-yl)-1H-pyrrolo[3,2-b] pyridine-6-carboxamide]
≥ 70%: pest or weed control at 500 ppm (Botrytis cinerea [1]) | inhibition of growth at 300 ppm (Parastagonospora nodorum) | pest or weed control at 500 ppm (Phakopsora pachyrhizi) | inhibition of growth at 300 ppm (Phytophthora infestans)

COc1nc2[nH]ccc2cc1C(=O)NC(C)(Cc1ccccc1)CC(C)C (centres unmarked) [Compound 89, N-(2,4-dimethyl-1-phenylpentan-2-yl)-6-methoxy-1H-pyrrolo[2,3-b]pyridine-5-carboxamide]
≥ 70%: inhibition of growth at 300 ppm (Botrytis cinerea [2]) | pest or weed control at 500 ppm (Phakopsora pachyrhizi) | inhibition of growth at 300 ppm (Botrytis cinerea [3])

CC(C)(Cc1ccccc1)NC(=O)c1cnc2cc[nH]c2c1 [Compound 95, N-(2-methyl-1-phenylpropan-2-yl)-1H-pyrrolo[3,2-b] pyridine-6-carboxamide]
≥ 70%: pest or weed control at 500 ppm (Botrytis cinerea [1]) | inhibition of growth at 300 ppm (Parastagonospora nodorum) | pest or weed control at 500 ppm (Phakopsora pachyrhizi) | inhibition of growth at 300 ppm (Phytophthora infestans)

Cc1cc2cc(C(=O)NC(C)(C)C(C)(C)c3ccccc3)cnc2n1C [Compound 100, N-(2,3-dimethyl-3-phenylbutan-2-yl)-1,2-dimethyl-1H-pyrrolo[2,3-b]pyridine-5-carboxamide]
≥ 70%: pest or weed control at 500 ppm (Botrytis cinerea [1]) | inhibition of growth at 300 ppm (Parastagonospora nodorum) | inhibition of growth at 300 ppm (Botrytis cinerea [2]) | inhibition of growth at 300 ppm (Pyricularia oryzae) | inhibition of growth at 300 ppm (Botrytis cinerea [3])

CC(C)(NC(=O)c1cnc2ccsc2c1)C(O)Cc1ccccc1 (centres unmarked) [Compound 105, N-(3-hydroxy-2-methyl-4-phenylbutan-2-yl)thieno[3,2-b] pyridine-6-carboxamide]
≥ 70%: inhibition of growth at 300 ppm (Parastagonospora nodorum) | inhibition of growth at 300 ppm (Botrytis cinerea [2]) | inhibition of growth at 300 ppm (Phytophthora infestans) | inhibition of growth at 300 ppm (Botrytis cinerea [3])

CC(C)(C#N)NC(=O)c1cnc2ccsc2c1 [Compound 106, N-(2-cyanopropan-2-yl)thieno[3,2-b] pyridine-6-carboxamide]
≥ 70%: pest or weed control at 500 ppm (Botrytis cinerea [1]) | inhibition of growth at 300 ppm (Parastagonospora nodorum) | inhibition of growth at 300 ppm (Botrytis cinerea [2]) | pest or weed control at 500 ppm (Phakopsora pachyrhizi) | inhibition of growth at 300 ppm (Botrytis cinerea [3])

CC(C)(COC(=O)c1ccccc1C(F)(F)F)NC(=O)c1cnc2c(c1)CCC2 [Compound 148, 2-(6,7-dihydro-5H-cyclopenta[b]pyridine-3-carboxamido)-2-methylpropyl 2-(trifluoromethyl)benzoate]
≥ 70%: inhibition of growth at 300 ppm (Botrytis cinerea [2]) | inhibition of growth at 300 ppm (Botrytis cinerea [3])

Cc1ccccc1C(=O)OCC(C)(C)NC(=O)c1cnc2c(c1)CCC2 [Compound 149, 2-(6,7-dihydro-5H-cyclopenta[b]pyridine-3-carboxamido)-2-methylpropyl 2-methylbenzoate]
≥ 70%: inhibition of growth at 300 ppm (Parastagonospora nodorum) | inhibition of growth at 300 ppm (Botrytis cinerea [2]) | inhibition of growth at 300 ppm (Botrytis cinerea [3])

C=C(C)CC(C)(COc1ccccc1F)NC(=O)c1cnc2ccsc2c1 (centres unmarked) [Compound 159, N-(1-(2-fluorophenoxy)-2,4-dimethylpent-4-en-2-yl)thieno[3,2-b] pyridine-6-carboxamide]
≥ 70%: inhibition of growth at 300 ppm (Parastagonospora nodorum) | inhibition of growth at 300 ppm (Botrytis cinerea [3])

Cn1ccc2cc(C(=O)NC(C)(C)COCc3ccccc3F)cnc21 [Compound 187, N-(1-((2-fluorobenzyl)oxy)-2-methylpropan-2-yl)-1-methyl-1H-pyrrolo[2,3-b]pyridine-5-carboxamide]
≥ 70%: inhibition of growth at 300 ppm (Parastagonospora nodorum) | inhibition of growth at 300 ppm (Botrytis cinerea [2]) | inhibition of growth at 300 ppm (Botrytis cinerea [3]) | inhibition of growth at 300 ppm (Colletotrichum capsici)

CC(C)(COCc1ccccc1F)NC(=O)c1cnc2ccsc2c1 [Compound 189]
≥ 70%: inhibition of growth at 300 ppm (Botrytis cinerea [2]) | inhibition of growth at 300 ppm (Pyricularia oryzae) | inhibition of growth at 300 ppm (Botrytis cinerea [3])

CC(C)(COCc1ccccc1F)NC(=O)c1cnc2c(c1)CCC2 [Compound 190, N-(1-((2-fluorobenzyl)oxy)-2-methylpropan-2-yl)-6,7-dihydro-5H-cyclopenta[b]pyridine-3-carboxamide]
≥ 70%: inhibition of growth at 300 ppm (Parastagonospora nodorum) | inhibition of growth at 300 ppm (Botrytis cinerea [2]) | inhibition of growth at 300 ppm (Botrytis cinerea [3]) | inhibition of growth at 300 ppm (Colletotrichum capsici)

Cn1cc(Br)c2cc(C(=O)NC(C)(C)COCc3ccccc3F)cnc21 [Compound 194, 3-bromo-N-(1-((2-fluorobenzyl)oxy)-2-methylpropan-2-yl)-1-methyl-1H-pyrrolo[2,3-b]pyridine-5-carboxamide]
≥ 70%: inhibition of growth at 300 ppm (Botrytis cinerea [2]) | inhibition of growth at 300 ppm (Botrytis cinerea [3])

CC(C)(COc1ccccn1)NC(=O)c1cnc2c(c1)CCC2 [Compound 202, N-(2-methyl-1-(pyridin-2-yloxy)propan-2-yl)-6,7-dihydro-5H-cyclopenta[b]pyridine-3-carboxamide]
≥ 70%: inhibition of growth at 300 ppm (Botrytis cinerea [2]) | inhibition of growth at 300 ppm (Phytophthora infestans)

CC(C)(COc1ccc(C#N)cn1)NC(=O)c1cnc2c(c1)CCC2 [Compound 223, N-(1-((5-cyanopyridin-2-yl)oxy)-2-methylpropan-2-yl)-6,7-dihydro-5H-cyclopenta[b]pyridine-3-carboxamide]
≥ 70%: inhibition of growth at 300 ppm (Parastagonospora nodorum) | inhibition of growth at 300 ppm (Botrytis cinerea [2]) | inhibition of growth at 300 ppm (Phytophthora infestans)

Cn1ccc2cc(C(=O)NC(C)(C)COc3ccc(F)cn3)cnc21 [Compound 230, N-(1-((5-fluoropyridin-2-yl)oxy)-2-methylpropan-2-yl)-1-methyl-1H-pyrrolo[2,3-b]pyridine-5-carboxamide]
≥ 70%: inhibition of growth at 300 ppm (Parastagonospora nodorum) | inhibition of growth at 300 ppm (Botrytis cinerea [2]) | inhibition of growth at 300 ppm (Phytophthora infestans) | inhibition of growth at 300 ppm (Colletotrichum capsici)

COc1nc2c(cc1C(=O)NC1(c3ccccc3)CC1)CCC2 [Compound 252, 2-methoxy-N-(1-phenylcyclopropyl)-6,7-dihydro-5H-cyclopenta[b]pyridine-3-carboxamide]
≥ 70%: inhibition of growth at 300 ppm (Parastagonospora nodorum) | inhibition of growth at 300 ppm (Botrytis cinerea [2]) | inhibition of growth at 300 ppm (Phytophthora infestans) | inhibition of growth at 300 ppm (Botrytis cinerea [3]) | inhibition of growth at 300 ppm (Colletotrichum capsici)

CON(C(=O)c1cc2c(nc1Cl)CCC2)C(C)Cc1ccccc1F (centres unmarked) [Compound 254, 2-chloro-N-(1-(2-fluorophenyl)propan-2-yl)-N-methoxy-6,7-dihydro-5H-cyclopenta[b]pyridine-3-carboxamide]
≥ 70%: inhibition of growth at 300 ppm (Parastagonospora nodorum) | inhibition of growth at 300 ppm (Botrytis cinerea [2]) | inhibition of growth at 300 ppm (Pyricularia oryzae) | inhibition of growth at 300 ppm (Botrytis cinerea [3])
